Reference: ChEMBL document CHEMBL4371004, “A-C Estrogens as Potent and Selective Estrogen Receptor-Beta Agonists (SERBAs) to Enhance Memory Consolidation under Low-Estrogen Conditions” (J Med Chem, 2018)
The source made the active and inactive calls. The calls are words filed in the database; no cut-off is given here.

Tests used:
[1] = target: T1, Peroxisome proliferator-activated receptor delta (Homo sapiens) (UniProt Q03181); assay: Agonist activity at GAL4 DNA binding domain fused PPARdelta (unknown origin) at 0.25 to 25 uM by FRET-based assay
T1 sequence (whole entry): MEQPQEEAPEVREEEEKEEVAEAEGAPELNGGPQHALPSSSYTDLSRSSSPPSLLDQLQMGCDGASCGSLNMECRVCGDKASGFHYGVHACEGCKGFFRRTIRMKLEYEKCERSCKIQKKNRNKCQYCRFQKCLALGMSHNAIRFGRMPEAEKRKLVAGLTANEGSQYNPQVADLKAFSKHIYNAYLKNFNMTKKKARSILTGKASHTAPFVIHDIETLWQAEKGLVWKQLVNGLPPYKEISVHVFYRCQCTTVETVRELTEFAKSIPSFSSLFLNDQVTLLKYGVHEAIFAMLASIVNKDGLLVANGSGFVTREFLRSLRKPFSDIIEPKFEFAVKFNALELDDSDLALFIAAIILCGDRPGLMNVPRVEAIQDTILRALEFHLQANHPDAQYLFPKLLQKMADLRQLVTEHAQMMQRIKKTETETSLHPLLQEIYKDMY

Cytochrome P450 2C9 = Cytochrome P450 2C9 (Homo sapiens, UniProt P11712)
Chain of Cytochrome P450 2C9 (P11712 whole entry, the tested form may be a part): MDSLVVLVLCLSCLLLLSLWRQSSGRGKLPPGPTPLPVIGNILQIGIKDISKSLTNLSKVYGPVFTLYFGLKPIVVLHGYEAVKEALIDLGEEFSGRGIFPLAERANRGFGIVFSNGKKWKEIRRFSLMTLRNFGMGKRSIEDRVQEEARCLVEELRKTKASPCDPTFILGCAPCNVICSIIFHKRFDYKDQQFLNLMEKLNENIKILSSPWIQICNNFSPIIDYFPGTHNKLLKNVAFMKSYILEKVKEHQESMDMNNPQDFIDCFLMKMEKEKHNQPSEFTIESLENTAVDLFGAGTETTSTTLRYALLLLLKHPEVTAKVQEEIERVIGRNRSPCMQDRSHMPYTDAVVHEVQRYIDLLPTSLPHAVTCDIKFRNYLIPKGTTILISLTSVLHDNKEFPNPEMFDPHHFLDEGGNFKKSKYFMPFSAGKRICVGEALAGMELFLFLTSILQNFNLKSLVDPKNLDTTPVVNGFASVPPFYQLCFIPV
Description: Inhibition of human recombinant CYP2C9 preincubated for 10 mins followed by NADPH addition and measured after 10 to 30 mins by P450-Glo luminescence assay

[2] = target: T2, Vitamin D3 receptor (Homo sapiens) (UniProt P11473); assay: Agonist activity at GAL4 DNA binding domain fused VDR ligand binding domain (unknown origin) at 0.25 to 25 uM by FRET-based assay
T2 sequence (whole entry): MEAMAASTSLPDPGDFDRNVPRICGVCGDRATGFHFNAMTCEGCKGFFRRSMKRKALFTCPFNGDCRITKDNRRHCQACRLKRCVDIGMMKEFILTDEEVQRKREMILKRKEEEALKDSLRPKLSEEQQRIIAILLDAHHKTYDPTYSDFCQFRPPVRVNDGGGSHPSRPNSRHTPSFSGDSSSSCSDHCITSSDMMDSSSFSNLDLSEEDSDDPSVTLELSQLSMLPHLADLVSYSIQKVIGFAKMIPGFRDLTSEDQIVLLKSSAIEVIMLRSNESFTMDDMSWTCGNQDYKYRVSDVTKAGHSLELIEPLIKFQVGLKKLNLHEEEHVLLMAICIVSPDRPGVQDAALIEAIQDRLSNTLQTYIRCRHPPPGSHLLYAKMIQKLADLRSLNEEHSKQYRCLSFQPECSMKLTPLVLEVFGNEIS

Mus musculus [3] = assay: Memory enhancement effect in C57BL/6 mouse assessed as time spent with moved object at 100 pg administered as dorsal hippocampal infusion by novel object recognition test; assay type: functional
Mus musculus [4] = assay: Memory enhancement effect in C57BL/6 mouse assessed as time spent with novel object at 0.5 mg/kg, po administered via gavage by novel object recognition test; assay type: functional
[5] = target: T3, Androgen receptor (Homo sapiens) (UniProt P10275); assay: Agonist activity at GAL4 DNA binding domain fused androgen receptor ligand binding domain (unknown origin) at 0.25 to 25 uM by FRET-based assay
T3 sequence (whole entry): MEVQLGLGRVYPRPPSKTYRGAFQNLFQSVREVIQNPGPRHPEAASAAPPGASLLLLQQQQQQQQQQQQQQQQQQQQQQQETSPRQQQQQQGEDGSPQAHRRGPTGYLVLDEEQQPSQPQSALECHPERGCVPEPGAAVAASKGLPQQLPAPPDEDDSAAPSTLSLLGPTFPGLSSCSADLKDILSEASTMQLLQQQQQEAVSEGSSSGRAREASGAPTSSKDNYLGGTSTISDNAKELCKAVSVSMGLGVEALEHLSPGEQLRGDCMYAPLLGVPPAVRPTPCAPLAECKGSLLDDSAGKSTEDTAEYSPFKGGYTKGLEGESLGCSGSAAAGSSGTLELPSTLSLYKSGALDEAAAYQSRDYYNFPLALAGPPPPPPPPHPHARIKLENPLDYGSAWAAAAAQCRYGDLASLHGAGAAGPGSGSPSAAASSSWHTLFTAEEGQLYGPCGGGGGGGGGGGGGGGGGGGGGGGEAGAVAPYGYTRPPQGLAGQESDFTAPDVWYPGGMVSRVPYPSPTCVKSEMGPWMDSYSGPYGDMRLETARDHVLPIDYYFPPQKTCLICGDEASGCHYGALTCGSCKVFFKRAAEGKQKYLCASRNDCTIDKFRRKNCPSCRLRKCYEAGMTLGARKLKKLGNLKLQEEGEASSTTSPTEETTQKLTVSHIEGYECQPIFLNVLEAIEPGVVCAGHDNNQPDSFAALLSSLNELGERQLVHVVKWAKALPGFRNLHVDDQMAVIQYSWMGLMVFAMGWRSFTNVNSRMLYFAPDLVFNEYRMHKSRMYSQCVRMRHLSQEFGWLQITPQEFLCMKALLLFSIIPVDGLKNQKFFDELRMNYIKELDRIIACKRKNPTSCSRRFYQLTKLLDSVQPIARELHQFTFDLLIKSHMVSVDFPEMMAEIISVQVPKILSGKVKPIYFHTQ

Mus musculus [6] = assay: Memory enhancement effect in C57BL/6 mouse assessed as time spent with novel object at 10 pg administered as dorsal hippocampal infusion by novel object recognition test; assay type: functional
Estrogen receptor [7] = target: T4, Estrogen receptor (Homo sapiens, UniProt P03372)
T4 sequence (P03372 whole entry): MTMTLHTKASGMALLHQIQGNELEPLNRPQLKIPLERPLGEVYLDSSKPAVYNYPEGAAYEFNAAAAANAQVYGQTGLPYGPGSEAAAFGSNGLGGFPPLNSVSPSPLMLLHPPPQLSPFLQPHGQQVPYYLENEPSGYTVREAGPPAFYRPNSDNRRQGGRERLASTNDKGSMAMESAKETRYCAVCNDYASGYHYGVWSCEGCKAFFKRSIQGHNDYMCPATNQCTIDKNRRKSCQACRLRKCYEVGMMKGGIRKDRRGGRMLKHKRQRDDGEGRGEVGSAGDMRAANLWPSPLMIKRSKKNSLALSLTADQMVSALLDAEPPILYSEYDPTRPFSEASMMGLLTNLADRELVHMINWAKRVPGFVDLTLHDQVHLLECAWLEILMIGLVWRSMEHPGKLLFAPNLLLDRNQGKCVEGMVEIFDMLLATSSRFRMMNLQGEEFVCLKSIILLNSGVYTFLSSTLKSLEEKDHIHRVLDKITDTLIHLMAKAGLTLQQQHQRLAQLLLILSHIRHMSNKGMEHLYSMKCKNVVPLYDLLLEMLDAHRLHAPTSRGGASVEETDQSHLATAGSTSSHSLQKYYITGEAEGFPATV
Description: Agonist activity at estrogen receptor alpha (unknown origin) after 22 hrs by cell-based luciferase reporter gene assay

Estrogen receptor [8] = target: T4, Estrogen receptor; remark: listed apart in the source
Mus musculus [9] = assay: Memory enhancement effect in C57BL/6 mouse assessed as time spent with moved object at 10 pg administered as dorsal hippocampal infusion by novel object recognition test; assay type: functional
Mus musculus [10] = assay: Memory enhancement effect in C57BL/6 mouse assessed as time spent with novel object at 5 mg/kg, ip by novel object recognition test; assay type: functional

In the case of `OC[C@H]1CC[C@H](c2ccc(O)cc2)CC1`, the Activity [1] is reported as “inactive”, the EC50 (Cytochrome P450 2C9) is reported as 34 µM and the Activity [2] is reported as “inactive”. The Time (Mus musculus [3]) was 10.3 s, the Time (Mus musculus [4]) was 5.3 s and the Activity [5] was “inactive”. It also gave a Time (Mus musculus [6]) of 0.88 s, an EC50 (Estrogen receptor [7]) of 20.4 µM and an EC50 (Estrogen receptor [8]) of 0.289 µM. The Time (Mus musculus [9]) was 1.19 s and the Time (Mus musculus [10]) was 1.65 s.
